Reference: patent US20050282743A1, “Molecular interactions in cells” (Arbor Vita Corporation, priority 2001, published 2005)
Ends that are not written are not given here. Peptide text beside a SMILES is read from it. * marks the point of attachment. Biotin = O=C1N[C@H]2[C@H](CS[C@H]2CCCCC(=O)*)N1

Experiments:
[1] = target: T1, PDZ protein (GST-PDZ fusion) (Homo sapiens, UniProt P29074); experiment: G' assay (10 uM PL peptide), results of TABLE 7 and TABLE 12; assay type: binding; settings: PDZ PTN-4, PDZ Domain 1
T1 construct: made in house; host or cells: E. coli (DH5alpha, BL21 or JM109)
T1 sequence (P29074 1-926): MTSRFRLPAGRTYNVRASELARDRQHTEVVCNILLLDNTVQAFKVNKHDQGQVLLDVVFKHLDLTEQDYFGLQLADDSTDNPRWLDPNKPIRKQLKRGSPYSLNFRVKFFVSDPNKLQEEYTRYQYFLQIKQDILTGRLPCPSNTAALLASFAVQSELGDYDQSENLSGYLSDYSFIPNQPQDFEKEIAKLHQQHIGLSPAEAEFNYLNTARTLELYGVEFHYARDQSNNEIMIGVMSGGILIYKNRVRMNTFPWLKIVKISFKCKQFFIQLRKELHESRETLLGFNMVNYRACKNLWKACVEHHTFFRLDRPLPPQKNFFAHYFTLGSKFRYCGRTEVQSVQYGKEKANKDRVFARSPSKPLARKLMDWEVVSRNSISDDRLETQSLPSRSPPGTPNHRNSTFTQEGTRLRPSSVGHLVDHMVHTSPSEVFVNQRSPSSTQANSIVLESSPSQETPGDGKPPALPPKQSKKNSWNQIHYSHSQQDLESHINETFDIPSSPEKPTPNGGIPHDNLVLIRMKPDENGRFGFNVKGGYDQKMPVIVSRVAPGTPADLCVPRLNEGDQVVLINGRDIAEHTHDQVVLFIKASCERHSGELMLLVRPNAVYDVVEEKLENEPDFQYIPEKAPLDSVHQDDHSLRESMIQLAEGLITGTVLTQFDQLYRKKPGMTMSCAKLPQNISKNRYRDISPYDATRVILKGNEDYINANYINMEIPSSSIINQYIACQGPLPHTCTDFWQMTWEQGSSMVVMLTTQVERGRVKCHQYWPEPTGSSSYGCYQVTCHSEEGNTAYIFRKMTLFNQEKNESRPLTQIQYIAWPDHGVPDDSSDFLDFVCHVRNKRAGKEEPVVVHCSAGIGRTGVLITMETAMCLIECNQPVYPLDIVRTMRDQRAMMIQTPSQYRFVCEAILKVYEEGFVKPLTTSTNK
Outline: (§1)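 Binding classes derive from A450 nm of bound biotin-tagged PL peptide. A score of 5 needs A450 above 4 in more than two repeats.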

[2] = target: T2, PDZ protein (GST-PDZ fusion) (Homo sapiens, UniProt Q9UPQ7); experiment: as above; assay type: binding; settings: PDZ KIAA1095, PDZ Domain 1
T2 construct: made in house; host or cells: E. coli (DH5alpha, BL21 or JM109)
T2 sequence (Q9UPQ7 1-1066): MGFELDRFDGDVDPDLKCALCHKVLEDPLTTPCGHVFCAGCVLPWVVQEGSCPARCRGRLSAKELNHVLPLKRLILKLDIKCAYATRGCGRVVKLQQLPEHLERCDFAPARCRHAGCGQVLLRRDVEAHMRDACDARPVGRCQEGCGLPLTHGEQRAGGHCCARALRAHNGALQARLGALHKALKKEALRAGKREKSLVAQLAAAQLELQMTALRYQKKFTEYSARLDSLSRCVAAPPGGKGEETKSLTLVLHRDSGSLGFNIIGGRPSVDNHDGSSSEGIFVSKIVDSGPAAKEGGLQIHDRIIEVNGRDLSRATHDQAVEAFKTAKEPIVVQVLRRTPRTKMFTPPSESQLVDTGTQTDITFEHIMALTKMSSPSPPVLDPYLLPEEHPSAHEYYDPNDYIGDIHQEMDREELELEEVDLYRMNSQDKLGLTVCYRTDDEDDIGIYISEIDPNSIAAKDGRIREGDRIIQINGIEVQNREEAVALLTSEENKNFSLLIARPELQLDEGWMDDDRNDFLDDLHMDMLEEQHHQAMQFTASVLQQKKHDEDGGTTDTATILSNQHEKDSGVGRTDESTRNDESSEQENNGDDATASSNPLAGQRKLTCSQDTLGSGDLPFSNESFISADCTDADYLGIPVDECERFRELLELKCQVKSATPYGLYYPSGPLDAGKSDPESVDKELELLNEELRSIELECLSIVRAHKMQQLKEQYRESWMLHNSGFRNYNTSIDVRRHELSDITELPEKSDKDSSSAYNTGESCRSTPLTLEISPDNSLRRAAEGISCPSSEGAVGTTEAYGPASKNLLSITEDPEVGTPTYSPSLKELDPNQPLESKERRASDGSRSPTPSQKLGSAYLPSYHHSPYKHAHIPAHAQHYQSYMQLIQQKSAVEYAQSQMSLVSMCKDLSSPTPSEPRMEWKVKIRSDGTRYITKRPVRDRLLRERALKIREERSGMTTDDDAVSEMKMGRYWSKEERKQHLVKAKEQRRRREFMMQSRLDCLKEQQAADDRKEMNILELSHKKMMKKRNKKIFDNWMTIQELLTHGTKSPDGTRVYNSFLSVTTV
Outline: as §1

Row | Compound | Classification [1] | Classification [2]
1 | CC(C)C[C@H](NC(=O)[C@H](C)NC(=O)[C@@H](NC(=O)[C@H](CCC(=O)O)NC(=O)[C@H](CCCNC(=N)N)NC(=O)[C@H](CCCNC(=N)N)NC(=O)CNC(=O)[C@H](CCC(N)=O)NC(=O)[C@H](CC(C)C)NC(=O)[C@H](CCCNC(=N)N)NC(=O)CNC(=O)CNC(=O)[C@H](CCCNC(=N)N)NC(=O)[C@H](C)NC(=O)[C@H](CO)NC(=O)[C@H](CCCNC(=N)N)NC(=O)CNC(=O)CNC(=O)[C@H](C)NC(=O)[C@H](C)NC(=O)CCCC[C@@H]1SC[C@@H]2NC(=O)N[C@@H]21)[C@@H](C)O)C(=O)O [HPV E6 33 (modified)] (Biotin-AAGGRSARGGRLQGRRETAL-OH; C-terminus assumed) | 1 (A450 nm 0-1) | 5 (A450 nm of 4 more than 2× repeated)
2 | CC(C)C[C@H](NC(=O)[C@H](CCCNC(=N)N)NC(=O)CNC(=O)CNC(=O)[C@H](CCCNC(=N)N)NC(=O)[C@H](C)NC(=O)[C@@H]1CCCN1C(=O)[C@H](CCCNC(=N)N)NC(=O)CNC(=O)CNC(=O)[C@@H](NC(=O)[C@H](C)NC(=O)CCCC[C@@H]1SC[C@@H]2NC(=O)N[C@@H]21)C(C)C)C(=O)N[C@@H](CCC(N)=O)C(=O)NCC(=O)N[C@@H](CCCNC(=N)N)C(=O)N[C@@H](CCCNC(=N)N)C(=O)N[C@@H](CCC(N)=O)C(=O)N[C@H](C(=O)N[C@@H](CCC(N)=O)C(=O)N[C@H](C(=O)O)C(C)C)[C@@H](C)O [HPV E6 58 (modified)] (Biotin-AVGGRPARGGRLQGRRQTQV-OH; C-terminus assumed) |  | 1 (A450 nm 0-1)
3 | CSCC[C@H](NC(=O)[C@H](C)NC(=O)[C@H](CCCNC(=N)N)NC(=O)CNC(=O)[C@@H](NC(=O)[C@H](Cc1c[nH]c2ccccc12)NC(=O)[C@H](CCCNC(=N)N)NC(=O)CNC(=O)CCCC[C@@H]1SC[C@@H]2NC(=O)N[C@@H]21)[C@@H](C)O)C(=O)N[C@@H](CO)C(=O)N[C@@H](C)C(=O)N[C@@H](Cc1c[nH]c2ccccc12)C(=O)N[C@@H](CCCCN)C(=O)N1CCC[C@H]1C(=O)N[C@H](C(=O)N[C@@H](CCCNC(=N)N)C(=O)N[C@@H](CCCNC(=N)N)C(=O)N[C@@H](CCC(=O)O)C(=O)N[C@H](C(=O)N[C@@H](CCC(=O)O)C(=O)N[C@H](C(=O)O)C(C)C)[C@@H](C)O)[C@@H](C)O [HPV E6 #35 (modified)] (Biotin-GRWTGRAMSAWKPTRRETEV-OH; C-terminus assumed) | 4 (A450 nm 3-4) | 4 (A450 nm 3-4)
4 | CC[C@H](C)[C@H](NC(=O)CNC(=O)[C@H](CO)NC(=O)[C@H](Cc1ccccc1)NC(=O)[C@@H](NC(=O)[C@H](CS)NC(=O)CNC(=O)CNC(=O)[C@H](C)NC(=O)[C@@H]1CCCN1C(=O)[C@@H](NC(=O)[C@@H]1CCCN1C(=O)CCCC[C@@H]1SC[C@@H]2NC(=O)N[C@@H]21)[C@@H](C)CC)[C@@H](C)O)C(=O)N[C@@H](Cc1ccccc1)C(=O)N1CCC[C@H]1C(=O)N[C@H](C(=O)N[C@@H](CC(C)C)C(=O)N[C@H](C(=O)N[C@@H](CO)C(=O)N1CCC[C@H]1C(=O)N[C@@H](CC(C)C)C(=O)O)[C@@H](C)O)[C@@H](C)O [KIA 1481] (Biotin-PIPAGGCTFSGIFPTLTSPL-OH; C-terminus assumed) |  | 1 (A450 nm 0-1)
5 | CC[C@H](C)[C@H](NC(=O)[C@H](CCC(N)=O)NC(=O)CCCC[C@@H]1SC[C@@H]2NC(=O)N[C@@H]21)C(=O)N[C@@H](CO)C(=O)N1CCC[C@H]1C(=O)NCC(=O)NCC(=O)N[C@@H](CC(C)C)C(=O)N[C@@H](CCC(=O)O)C(=O)N1CCC[C@H]1C(=O)N1CCC[C@H]1C(=O)N[C@@H](CO)C(=O)N[C@@H](CCC(=O)O)C(=O)N[C@@H](CCCCN)C(=O)N[C@@H](Cc1c[nH]cn1)C(=O)N[C@@H](Cc1ccccc1)C(=O)N[C@@H](CCCNC(=N)N)C(=O)N[C@@H](CCC(=O)O)C(=O)N[C@H](C(=O)N[C@@H](CCC(=O)O)C(=O)N[C@H](C(=O)O)C(C)C)[C@@H](C)O [Tax] | 2 (A450 nm 1-2) | 
6 | QATSRNGHSARQHVVADTEL (Biotin-QATSRNGHSARQHVVADTEL) [CD34] | 1 (A450 nm 0-1) | 
7 | TQGFPGPATWRRISSLESEV | 2 (A450 nm 1-2) | 1 (A450 nm 0-1)
